The target in series [1] is T1, CB1 receptor (Mus musculus, UniProt P47746). The series can be described thus: THC-induced increase in food intake in mice. The class given is in vivo. Also noted: tissue Charles River Laboratories (France) (animals); host or cells: living mice, whole animal. The following applies: mice; THC between 0.5 and 1 mg/kg; compounds between 2 and 4 mg/kg 30 min before THC. The protocol:
Food intake was evaluated by measuring consumption of food in the home cages of the animals. For each animal, 50-100 g of standard laboratory chow (U.A.R., France) was placed in the cleaned home cage. The remaining amount of food was weighted 1 h later and the amount of food consumed calculated.
(§1) Other pregnenolone derivatives (Table 4) for which the metabolism in downstream active steroids was reduced were tested for their ability to inhibit: 1. effects of the THC-induced cannabinoid tetrade (decrease in body temperature and in locomotor activity, (THC 10 mg/kg, compounds 6 mg/kg 15-30 min before THC) that is recognized as a sound method to evaluate the activation of the CB1 receptor; 2. THC-induced increase in food intake a typical effect of CB1 activation (THC between 0.5 and 1 mg/kg, compounds between 2 and 4 mg/kg 30 min before THC); 3. the increase in TNFalpha induced by LPS, another effects typical of CB1 […] (compounds 6 mg/kg 15 min before LPS). For each compound and each test independent groups of animals were used (at least n=6 per compound/per test).

In the next series the test system is CHO cells. Briefly: Study of metabolism in vitro in CHO cells, steroids in culture medium by GC/MS. Particulars: CHO cells. The protocol: Plasma, brain and culture medium levels of pregnenolone (5-Pregnen-3β-ol-20-one), allopregnanolone (3α-hydroxy-5α-pregnan-20-one), epiallopregnanolone (3β-hydroxy-5α-pregnan-ol-20-one), testosterone, and 5α dihydrotestosterone were determined by GC/MS according to the of estraction, purification and quantification protocol described previously (George O, et al., Biol Psychiatry. 2010 68: 956-63, Vallee M, et al., Anal Biochem. 2000, 287:153-66).
The CHO-K1 cell line (#CCL-61, ATCC-LGC, USA) derived as a subclone from the parental CHO cell line initiated from a biopsy of an adult Chinese hamster ovary was used. The CHO-K1 cells were seeded on 24-well plates (#353047, BD Biosciences, USA) to the appropriate concentration (25×10^4 cells/well) in fresh, antibiotic-free medium constituted by 90% DMEM-Glutamax; (#31966-21, Life technologies, USA) and 10% Fetal Bovine Serum (#10270-106, Life technologies, USA).
In this example the inventors further analyzed the metabolism of pregnenolone derivatives using an in vitro test in CHO cells. These cells derived from the ovary have all the enzymes needed to metabolize pregnenolone in down stream steroids.

The subject of the next series is TNF-α. The series can be described thus: Increase in plasma TNF-alpha induced by LPS. The series is classed as in vivo, mice. The following applies: Mus musculus; mice; compounds 6 mg/kg 15 min before LPS. As for the experimental part: Trunk blood was collected and centrifuged at 3000 rpm for 15 min at 4° C. Plasma was stored at −80° C. until measurement of TNFα was carried out. Plasma TNFα levels were assessed using an ELISA kit, following the manufacturer's instructions (Fisher Scientific, Catalog #E6473C).
In this example the inventors further analyzed the ability of pregnenolone to inhibit the effects of CB1 activation in the context of inflammation and fibrosis. […] TNF-alpha is one of the cellular responses to inflammatory stimuli more involved in promoting fibrosis.
as §1

Series [2] has as its target T1, CB1 receptor. Briefly: THC-induced cannabinoid tetrad (body temperature, locomotor activity, catalepsy, analgesia). The series is classed as in vivo, mice. Also noted: tissue Charles River Laboratories (France) (animals); host or cells: living mice, whole animal. Particulars: for % Inhibition temperature decrease / % increase in motor activity: mice, THC 10 mg/kg, compounds 6 mg/kg 15-30 min before THC.

T1 sequence (P47746 whole entry): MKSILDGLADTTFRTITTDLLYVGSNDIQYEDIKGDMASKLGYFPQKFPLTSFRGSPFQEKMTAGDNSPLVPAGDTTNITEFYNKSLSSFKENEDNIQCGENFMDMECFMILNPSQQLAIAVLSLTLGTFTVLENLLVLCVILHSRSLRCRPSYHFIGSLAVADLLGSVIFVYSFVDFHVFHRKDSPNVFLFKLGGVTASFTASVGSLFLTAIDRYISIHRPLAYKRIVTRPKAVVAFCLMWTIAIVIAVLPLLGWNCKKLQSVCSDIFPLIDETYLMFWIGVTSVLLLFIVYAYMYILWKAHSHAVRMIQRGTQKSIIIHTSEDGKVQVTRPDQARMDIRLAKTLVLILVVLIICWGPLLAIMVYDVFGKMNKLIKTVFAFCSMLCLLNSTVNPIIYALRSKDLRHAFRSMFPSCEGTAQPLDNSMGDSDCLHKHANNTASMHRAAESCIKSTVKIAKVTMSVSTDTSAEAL

By inhibition in vivo is commonly meant how much of the control response was suppressed. Low values mean a weak effect, high ones a strong effect. On to `C[C@@H](O)[C@H]1CCC2C3CCC4=C[C@@H](O)CC[C@]4(C)C3CC[C@@]21C` (stereo in doubt) [Compound 12, 4-Pregnen-3β,20α-diol], for which the “% Inhibition of THC-Induced food intake” value on CB1 receptor [1] is recorded as ≥100%, P < 0.001. In addition, in the series on CHO cells, the “metabolism in downstream active steroids (Reduced metabolism / Metabolized)” value (“metabolism … (Reduced metabolism / Metabolized)” below) is given as “Reduced metabolism”. Further, in the series with TNF-α, the inhibition in vivo at 6 mg/kg amounted to 81%. At CB1 receptor [2], the “% Inhibition temperature decrease” value is listed as 42%, P < 0.004 and the “% increase in motor activity” value is reported as 100%, P < 0.16.

On to `C[C@H](O)[C@@]1(O)CCC2C3CCC4=CC(=O)CC[C@]4(C)C3CC[C@@]21C` (stereo in doubt) [Compound 14, 4-Pregnen-17α,20α-diol-3-one], for which the “% Inhibition of THC-Induced food intake” value at CB1 receptor [1] is 70%, P < 0.06. In the series on CHO cells, the “metabolism … (Reduced metabolism / Metabolized)” value is “Reduced metabolism”. Also, in the series on TNF-α, the inhibition in vivo at 6 mg/kg stood at 65%. Also, on CB1 receptor [2], the “% Inhibition temperature decrease” value was 45%, P < 0.001 and the “% increase in motor activity” value was 277%, P < 0.004.

Consider `C[C@@H](O)[C@H]1CCC2C3CCC4=CC(=O)CC[C@]4(C)C3CC[C@@]21C` (stereo in doubt) [Compound 18, 4-Pregnen-20α-ol-3-one], for which, at CB1 receptor [1], the “% Inhibition of THC-Induced food intake” value was 30%, P > 0.25. Moreover, the “metabolism … (Reduced metabolism / Metabolized)” value in the series with CHO cells is reported as “Reduced metabolism”. The molecule also had an inhibition in vivo at 6 mg/kg with TNF-α of 65%. In addition, on CB1 receptor [2], the “% Inhibition temperature decrease” value is 25%, P < 0.04 and the “% increase in motor activity” value is listed as 146%, P < 0.1.

On to `CCC1(c2ccc(N)cc2)CCC(=O)NC1=O` (stereo not drawn) [AMG, aminoglutethimide, reference compound], for which the “effect on behavioural effects of THC (tetrad)” value on CB1 receptor [2] (AMG 50 mg/kg ip 30 min before THC) is “strongly increased all the behavioural effect of THC”.

Turning to `C[C@H](O)[C@H]1CCC2C3CC=C4C[C@@H](O)CC[C@]4(C)C3CC[C@@]21C` (stereo partly drawn) [Compound 20, 5-Pregnen-3β,20α-diol], at CB1 receptor [1], the “% Inhibition of THC-Induced food intake” value is recorded as 85%, P < 0.03. In addition, the “metabolism … (Reduced metabolism / Metabolized)” value in the series on CHO cells is reported as “Reduced metabolism”. In the series with TNF-α, this molecule came in with an inhibition in vivo at 6 mg/kg of 65%. Besides, at CB1 receptor [2], the “% Inhibition temperature decrease” value is recorded as 34%, P < 0.04 and the “% increase in motor activity” value is given as 123%, P < 0.04.

`CC[C@H]1CCC2C3CC=C4C[C@@H](O)CC[C@]4(C)C3CC[C@@]21C` (stereo partly drawn) [Compound 24, 20-Deoxypregnenolone]: the “metabolism … (Reduced metabolism / Metabolized)” value in the series on CHO cells is reported as “Reduced metabolism”. This molecule also showed an inhibition in vivo at 6 mg/kg with TNF-α of 34%. Besides, at CB1 receptor [2], the “% Inhibition temperature decrease” value is reported as 25%, P < 0.08 and the “% increase in motor activity” value was 33%, P > 0.20.

As for `CC[C@]1(C(C)=O)CCC2C3CC=C4C[C@@H](O)CC[C@]4(C)C3CC[C@@]21C` (stereo partly drawn) [Compound 32, 17α-Ethylpregnenolone], the “metabolism … (Reduced metabolism / Metabolized)” value in the series with CHO cells is recorded as “Reduced metabolism”. In the series with TNF-α, this molecule yielded an inhibition in vivo at 6 mg/kg of 64%. In addition, at CB1 receptor [2], the “% Inhibition temperature decrease” value is recorded as 12%, P > 0.25 and the “% increase in motor activity” value is −2%, P > 0.25.

Consider `CO[C@H]1CC[C@@]2(C)C(=CCC3C2CC[C@@]2(C)C3CC[C@]2(C)C(C)=O)C1` (stereo partly drawn) [Compound 35, 3β-Methoxy-17α-methylpregnenolone], for which the “metabolism … (Reduced metabolism / Metabolized)” value in the series with CHO cells is “Reduced metabolism”. Moreover, the inhibition in vivo at 6 mg/kg in the series on TNF-α was determined as 57%. In addition, at CB1 receptor [2], the “% Inhibition temperature decrease” value is on record as 33%, P < 0.01 and the “% increase in motor activity” value is recorded as −32%, P > 0.24.

On to `COC1(C(C)=O)CCC2C3CC=C4C[C@@H](O)CC[C@]4(C)C3CC[C@@]21C` (stereo partly drawn) [Compound 36, 17-Methoxypregnenolone], for which the “% Inhibition of THC-Induced food intake” value on CB1 receptor [1] was ≥100%, P < 0.003. The “metabolism … (Reduced metabolism / Metabolized)” value with CHO cells is reported as “Reduced metabolism”. Further, in the series on TNF-α, testing at 6 mg/kg gave an inhibition in vivo of 37%. Moreover, at CB1 receptor [2], the “% Inhibition temperature decrease” value is given as 54%, P < 0.001 and the “% increase in motor activity” value was 326%, P < 0.001.

For `CC(=O)C1=CC[C@H]2[C@@H]3CC=C4CCCC[C@]4(C)[C@H]3CC[C@]12C` [Compound 39, 5,16-Pregnadien-20-one], the “% Inhibition of THC-Induced food intake” value at CB1 receptor [1] is on record as ≥100%, P < 0.02. Also, the “metabolism … (Reduced metabolism / Metabolized)” value in the series on CHO cells is “Reduced metabolism”. In the series with TNF-α, this molecule yielded an inhibition in vivo at 6 mg/kg of 46%. Besides, at CB1 receptor [2], the “% Inhibition temperature decrease” value is 56%, P < 0.001 and the “% increase in motor activity” value was 309%, P < 0.001.

`CC(=O)[C@@]1(C)CCC2C3CCC4=CC(=O)CC[C@]4(C)C3CC[C@@]21C` (stereo partly drawn) [Compound 40, 17α-Methylprogesterone]: the “% Inhibition of THC-Induced food intake” value at CB1 receptor [1] is 74%, P < 0.07. Further, the “metabolism … (Reduced metabolism / Metabolized)” value in the series with CHO cells is recorded as “Reduced metabolism”. In the series with TNF-α, at 6 mg/kg the inhibition in vivo was 57%. Further, on CB1 receptor [2], the “% Inhibition temperature decrease” value is 18%, P < 0.02 and the “% increase in motor activity” value was 57%, P < 0.21.

Turning to `CC(=O)[C@H]1CCC2C3CC=C4C[C@@H](OCc5ccccc5)CC[C@]4(C)C3CC[C@@]21C` (stereo partly drawn) [Compound 41, 3β-Benzyloxypregnenolone], the “metabolism … (Reduced metabolism / Metabolized)” value in the series with CHO cells is reported as “Reduced metabolism”. Moreover, in the series on TNF-α, 6 mg/kg produced 62% inhibition in vivo. For the same molecule, at CB1 receptor [2], the “% Inhibition temperature decrease” value was 38%, P < 0.001 and the “% increase in motor activity” value was 106%, P < 0.03.

For the molecule `CC(=O)[C@H]1CC[C@H]2[C@@H]3CC[C@@H]4CC(=O)CC[C@]4(C)[C@H]3CC[C@]12C` [Compound 60, 5β-Pregnan-3,20-dione], the “% Inhibition of THC-Induced food intake” value at CB1 receptor [1] is on record as ≥100%, P < 0.002. This molecule also yielded an inhibition in vivo at 6 mg/kg in the series with TNF-α of 77%. At CB1 receptor [2], the “% Inhibition temperature decrease” value is on record as 66%, P < 0.0001 and the “% increase in motor activity” value was 70%, P < 0.05.

On to `CC(=O)[C@@]1(Cc2ccccc2)CCC2C3CC=C4C[C@@H](O)CC[C@]4(C)C3CC[C@@]21C` (stereo partly drawn) [Compound 65, 17α-Benzylpregnenolone], for which, at CB1 receptor [1], the “% Inhibition of THC-Induced food intake” value is on record as ≥100%, P < 0.001. Besides, the “metabolism … (Reduced metabolism / Metabolized)” value with CHO cells was “Reduced metabolism”. The molecule also came in with an inhibition in vivo at 6 mg/kg with TNF-α of 65%. Also, at CB1 receptor [2], the “% Inhibition temperature decrease” value is reported as 53%, P < 0.003 and the “% increase in motor activity” value is 142%, P < 0.03.

`CNC(C)[C@H]1CC[C@H]2[C@@H]3CC=C4C[C@@H](O)CC[C@]4(C)[C@H]3CC[C@]12C` (stereo partly drawn) [Compound 67, 20-Methylamino-5-pregnen-3β-ol]: the “metabolism … (Reduced metabolism / Metabolized)” value in the series on CHO cells is reported as “Reduced metabolism”. For the same molecule, at CB1 receptor [2], the “% Inhibition temperature decrease” value is given as 28%, P < 0.05 and the “% increase in motor activity” value is listed as −20%, P > 0.35.

For `C=CC[C@]1(C(C)=O)CCC2C3CC=C4C[C@@H](OC)CC[C@]4(C)C3CC[C@@]21C` (stereo partly drawn) [Compound 69, 17α-Allyl-3β-methoxypregnenolone], the “metabolism … (Reduced metabolism / Metabolized)” value in the series with CHO cells is given as “Reduced metabolism”. In addition, on CB1 receptor [2], the “% Inhibition temperature decrease” value is 4%, P > 0.39 and the “% increase in motor activity” value is reported as −49%, P > 0.1.

For `CO[C@H]1CC[C@@]2(C)C(=CCC3C2CC[C@@]2(C)C3CC[C@]2(Cc2ccccc2)C(C)=O)C1` (stereo partly drawn) [Compound 70, 17α-benzyl-3β-methoxypregnenolone], the “metabolism … (Reduced metabolism / Metabolized)” value in the series with CHO cells is “Reduced metabolism”. In addition, on CB1 receptor [2], the “% Inhibition temperature decrease” value is reported as 8%, P > 0.49 and the “% increase in motor activity” value is 2%, P > 0.48.

Consider `CC(=O)[C@H]1CCC2C3CC=C4CC(N=[N+]=[N-])CC[C@]4(C)C3CC[C@@]21C` (stereo partly drawn) [Compound 72, 3-Azidopregnenolone], for which the “% Inhibition of THC-Induced food intake” value at CB1 receptor [1] is recorded as ≥100%, P < 0.001. Besides, the “metabolism … (Reduced metabolism / Metabolized)” value in the series with CHO cells is recorded as “Reduced metabolism”. For the same molecule, the inhibition in vivo at 6 mg/kg in the series on TNF-α amounted to 61%. Further, on CB1 receptor [2], the “% Inhibition temperature decrease” value is on record as 34%, P < 0.05 and the “% increase in motor activity” value was 145%, P < 0.05.
